Assay results published in PubChem BioAssay (NCI).
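Protocol summary: plate cells (96-well), add compound at 5 concentrations, incubate 48 h, interpolate endpoints linearly. Here, GI50 denotes the concentration required for 50% inhibition of growth. At the TGI there is no net growth.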

Key:
Assay in all cases: growth of human tumour cells (NCI), 48 h
[1] = system: SK-OV-3 ovarian
[2] = system: PC-3 prostate
[3] = system: MALME-3M melanoma
[4] = system: MCF7 breast
[5] = system: SN12C renal
[6] = system: UACC-62 melanoma
[7] = system: T-47D breast
[8] = system: LOX IMVI melanoma
[9] = system: K-562 leukemia
[10] = system: NCI-H522 lung
[11] = system: OVCAR-3 ovarian
[12] = system: COLO 205 colon
[13] = system: EKVX NSCLC
[14] = system: SF-539 CNS
[15] = system: SNB-75 CNS
[16] = system: BT-549 breast
[17] = system: SR leukemia
[18] = system: HS 578T breast
[19] = system: NCI-H226 lung
[20] = system: SK-MEL-28 melanoma
[21] = system: HOP-92 NSCLC
[22] = system: 786-0 renal
[23] = system: U251 CNS
[24] = system: OVCAR-5 ovarian
[25] = system: MDA-MB-231 breast
[26] = system: A549 NSCLC
[27] = system: HT29 colon
[28] = system: SK-MEL-5 melanoma
[29] = system: IGROV1 ovarian
[30] = system: SK-MEL-2 melanoma
[31] = system: SW-620 colon
[32] = system: MDA-MB-435
[33] = system: RXF 393 renal
[34] = system: SF-295 CNS
[35] = system: HL-60(TB) leukemia
[36] = system: UACC-257 melanoma
[37] = system: M14 melanoma
[38] = system: RPMI-8226 leukemia
[39] = system: DU-145 prostate
[40] = system: ACHN renal
[41] = system: UO-31 renal
[42] = system: OVCAR-8 ovarian
[43] = system: HCT-15 colon
[44] = system: MOLT-4 leukemia
[45] = system: HCT-116 colon
[46] = system: HCC-2998 colon
[47] = system: A498 renal
[48] = system: NCI/ADR-RES ovarian
[49] = system: TK-10 renal
[50] = system: KM12 colon
[51] = system: CAKI-1 renal
[52] = system: SNB-19 CNS
[53] = system: HOP-62 NSCLC
[54] = system: OVCAR-4 ovarian
[55] = system: NCI-H460 lung
[56] = system: SF-268 CNS

Work on N/C(=N\c1nc2c(Br)cccc2s1)C(Br)Br yielded a GI50 [1] of 10.8 µM, a TGI [1] of 35.4 µM and a GI50 [2] of 8.68 µM. For the same compound, the TGI [2] was 26.1 µM, the GI50 [3] was 8.53 µM and the TGI [3] was 24.4 µM. The GI50 [4] was 2.25 µM, the TGI [4] was 11.3 µM and the GI50 [5] was 11.7 µM. The TGI [5] was 29.8 µM, the GI50 [6] was 6.63 µM and the TGI [6] was 24.3 µM. For the same compound, the GI50 [7] was 10.3 µM, the TGI [7] was 36.1 µM and the GI50 [8] was 0.307 µM. It also gave a TGI [8] of 1.29 µM, a GI50 [9] of 2.66 µM and a TGI [9] of 52.7 µM. For the same compound, the GI50 [10] was 6.16 µM, the TGI [10] was 21.7 µM and the GI50 [11] was 4.19 µM. The TGI [11] was 16.6 µM, the GI50 [12] was 3.49 µM and the TGI [12] was 13.9 µM. It also gave a GI50 [13] of 11.4 µM, a TGI [13] of 28 µM and a GI50 [14] of 3.7 µM. It also gave a TGI [14] of 15 µM, a GI50 [15] of 10.2 µM and a TGI [15] of 22.1 µM. For the same compound, the GI50 [16] was 11.2 µM, the TGI [16] was 29.9 µM and the GI50 [17] was 4.68 µM. The TGI [17] was 31 µM, the GI50 [18] was 7.24 µM and the TGI [18] was > 100 µM. It also gave a GI50 [19] of 11.3 µM, a TGI [19] of 38.6 µM and a GI50 [20] of 11.1 µM. For the same compound, the TGI [20] was 23.3 µM, the GI50 [21] was 6.07 µM and the TGI [21] was 29.4 µM. For the same compound, the GI50 [22] was 13.1 µM, the TGI [22] was 35.2 µM and the GI50 [23] was 2.83 µM. For the same compound, the TGI [23] was 12.1 µM, the GI50 [24] was 12 µM and the TGI [24] was 25.8 µM. For the same compound, the GI50 [25] was 5.51 µM, the TGI [25] was 28 µM and the GI50 [26] was 7.76 µM. For the same compound, the TGI [26] was 21.9 µM, the GI50 [27] was 2.91 µM and the TGI [27] was 12.8 µM. The GI50 [28] was 17.5 µM, the TGI [28] was 32 µM and the GI50 [29] was 10.4 µM. The TGI [29] was 31.6 µM, the GI50 [30] was 15.4 µM and the TGI [30] was 34.7 µM. For the same compound, the GI50 [31] was 2.26 µM, the TGI [31] was 11.2 µM and the GI50 [32] was 3.22 µM. The TGI [32] was 13.7 µM, the GI50 [33] was 2.74 µM and the TGI [33] was 9.95 µM. The GI50 [34] was 10.6 µM, the TGI [34] was 25.9 µM and the GI50 [35] was 7.38 µM. The TGI [35] was 57.5 µM, the GI50 [36] was 13.5 µM and the TGI [36] was 28 µM. The GI50 [37] was 10.4 µM, the TGI [37] was 28.1 µM and the GI50 [38] was 2.97 µM. The TGI [38] was 16.4 µM, the GI50 [39] was 3.84 µM and the TGI [39] was 16 µM. For the same compound, the GI50 [40] was 2.98 µM, the TGI [40] was 11.8 µM and the GI50 [41] was 5.69 µM. The TGI [41] was 20.2 µM, the GI50 [42] was 8.18 µM and the TGI [42] was 24.1 µM. For the same compound, the GI50 [43] was 2.57 µM, the TGI [43] was 11.5 µM and the GI50 [44] was 3.9 µM. For the same compound, the TGI [44] was 27.3 µM, the GI50 [45] was 2.27 µM and the TGI [45] was 16.8 µM. It also gave a GI50 [46] of 3.62 µM, a TGI [46] of 14.3 µM and a GI50 [47] of 21.5 µM. For the same compound, the TGI [47] was 50.6 µM, the GI50 [48] was 2.58 µM and the TGI [48] was 9.81 µM. It also gave a GI50 [49] of 15.9 µM, a TGI [49] of 32.2 µM and a GI50 [50] of 4.29 µM. It also gave a TGI [50] of 22.4 µM, a GI50 [51] of 2.1 µM and a TGI [51] of 8.98 µM. It also gave a GI50 [52] of 10.4 µM, a TGI [52] of 27.8 µM and a GI50 [53] of 10.5 µM. It also gave a TGI [53] of 27.8 µM, a GI50 [54] of 6.21 µM and a TGI [54] of 30.6 µM. It also gave a GI50 [55] of 2.55 µM, a TGI [55] of 11.5 µM and a GI50 [56] of 4.67 µM. For the same compound, the TGI [56] was 26.9 µM.
